The source of these data is PubChem BioAssay (NCI).

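Compound exposure: 48 hours, 5 concentrations, 96-well plates. TGI: concentration producing complete growth inhibition.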

Holding throughout (assay): DTP human tumour cell line panel, 48 h
In assay [1] the test system is BT-549 breast.
For assay [2], the system named is NCI-H522 lung.
The subject of assay [3] is UACC-62 melanoma.
Assay [4] concerns SK-MEL-2 melanoma.
Assay [5] concerns SK-MEL-28 melanoma.
Assay [6] deals with IGROV1 ovarian.
The subject of assay [7] is CAKI-1 renal.
Assay [8] has as its system MDA-MB-435.
For assay [9], the system named is HL-60(TB) leukemia.
In assay [10] the test system is MALME-3M melanoma.

One may read the TGI as the concentration at which net growth stops. Low readings indicate more potent growth arrest, high ones less potent growth arrest. Turning to `C=CCN1CCC2(CC1)NC(=O)c1ccccc1O2`, the TGI in assay [1], in [2], in assay [3], in assay [4], in assay [5] and in assay [6] was more than 100 µM each time. Besides, the TGI in assay [7], in [8], in assay [9] and in assay [10] was more than 100 µM in each case.

For the compound `COc1cc(C=O)cc(C=Nc2ccc(S(N)(=O)=O)cc2)c1O`, the TGI was more than 100 µM in [1]; 44.5 µM in assay [2]; more than 100 µM in assay [3]; 20.8 µM in [4]; 99 µM in assay [5]; more than 100 µM in [6]. Moreover, the TGI in assay [7] came out at 49.3 µM; in [8], 49 µM; in [9], 75.1 µM; in assay [10] it was 7.78 µM.

As for `COC(=O)C(Cc1nc2ccccc2[nH]c1=O)C(=O)C(=O)Nc1cc(C(F)(F)F)ccc1Cl` (stereo not given), the total growth inhibition concentration (TGI) in assay [1] was 44.5 µM; in assay [2], 19 µM; in [3], 53.4 µM; in assay [4] it was 34.9 µM; in assay [5] it was more than 100 µM; in assay [6], 25.3 µM. Besides, the TGI in assay [7] is 33.4 µM; in [8], more than 100 µM; in [9] it was 54.2 µM; in [10], 31.4 µM.

Regarding `OC1c2ccccc2C(O)C2OC12` (stereo not given), the TGI in assay [1], in [2], in assay [3], in assay [4], in assay [5] and in assay [6] was more than 100 µM throughout. In addition, the concentration for total growth inhibition (TGI) in assay [7], in assay [8], in assay [9] and in assay [10] was more than 100 µM throughout.

As to `OCC(O)C(O)C(O)C(O)/C=N/Nc1nc(O)c(/C=C2\C=Nc3ccccc32)[nH]1` (stereo not given), the TGI was more than 100 µM in assay [1]; more than 100 µM in [2]; more than 100 µM in assay [3]; 97.7 µM in assay [4]; more than 100 µM in assay [5]; more than 100 µM in assay [6]. Further, the TGI in assay [7], in assay [8], in assay [9] and in assay [10] was more than 100 µM in each case.

For `C/C=C1\CC(C(=O)OCC)CCCCCCCCCCC1=O` (stereo not given), the TGI in assay [1] is more than 100 µM; in assay [2], 81.5 µM; in [3], more than 100 µM; in assay [4], more than 100 µM; in assay [5], more than 100 µM; in assay [6] it was more than 100 µM. Moreover, the TGI in assay [7] was more than 100 µM; in assay [8] it was 38 µM; in assay [9] it was more than 100 µM; in [10] it was more than 100 µM.

`CC1(C)CC[C@]2(C(=O)O)[C@H](O)C[C@]3(C)C(=CC[C@@H]4[C@@]5(C)CC[C@H](OC6OC(C(=O)O)C(O)C(O)C6O)C(C)(C)[C@@H]5CC[C@]43C)[C@@H]2C1` (stereo not given in full): the TGI in assay [1] is 34.2 µM; in assay [2], more than 100 µM; in assay [3], 61.9 µM; in [4] it was more than 100 µM; in assay [5] it was 37.1 µM; in assay [6], more than 100 µM. The TGI in assay [7] was more than 100 µM; in assay [8], more than 100 µM; in assay [9], 44.9 µM; in [10], more than 100 µM.

Regarding `CC1CN=C(c2ccc(COc3ccc(C4=NCC(C)N4)cc3)cc2)N1` (stereo not given), the TGI was more than 100 µM in assay [1]; more than 100 µM in assay [2]; more than 100 µM in [3]; 58.4 µM in assay [4]; more than 100 µM in assay [5]; more than 100 µM in assay [6]. Moreover, the TGI in assay [7], in assay [8], in assay [9] and in assay [10] was more than 100 µM in each case.

For `COc1ccccc1NS(=O)(=O)c1ccc2ncn(NS(=O)(=O)c3ccc(Cl)cc3)c(=O)c2c1`, the TGI in assay [1], in assay [2], in assay [3], in assay [4], in assay [5] and in [6] was more than 100 µM each time. In addition, the TGI in assay [7], in assay [8], in [9] and in assay [10] was more than 100 µM in each case.

In the case of `C#CCOC(=O)C(N)CCSC` (stereo not given), the TGI in assay [1], in assay [2], in assay [3], in [4], in assay [5] and in assay [6] was more than 100 µM each time. In addition, the TGI in assay [7], in [8], in assay [9] and in assay [10] was more than 100 µM throughout.

Turning to `CCCCCCCCCCCCCCCCP(=O)([O-])OCC[N+](C)(C)C`, the TGI in assay [1] was 22.6 µM; in assay [2], 42.6 µM; in [3] it was 29.3 µM; in assay [4], 31.5 µM; in assay [5] it was 33.8 µM; in [6], 7.2 µM. Besides, the TGI in assay [7] turned out to be 25.4 µM; in [8], 34.2 µM; in assay [9] it was 17.9 µM; in assay [10] it was 36.6 µM.

In the case of `C=CC(Br)(CBr)CCC(Br)C(C)C` (stereo not given), the TGI amounted to 11.5 µM in assay [1]; 3.46 µM in assay [2]; 12.5 µM in [3]; 12.8 µM in [4]; 16.8 µM in assay [5]; 11.1 µM in assay [6]. Also, the TGI in assay [7] amounted to 16.3 µM; in assay [8] it was 33.5 µM; in assay [9], 2.04 µM; in assay [10], 28.1 µM.

`C#CCCCC(=O)N(C(=O)CS(=O)CC)c1ccccc1` (stereo not given): the TGI in [1], in [2], in assay [3], in assay [4], in assay [5] and in [6] was more than 100 µM each time. The TGI in assay [7], in assay [8], in assay [9] and in assay [10] was more than 100 µM throughout.

`Cc1cc(O)c(C(C)C)cc1N=Cc1ccccc1O`: the TGI in assay [1] was found to be 22 µM; in assay [2] it was 17.2 µM; in assay [3], 21.7 µM; in assay [4], 25.4 µM; in assay [5] it was 31.4 µM; in assay [6], 22.4 µM. The TGI in [7] stood at 25.4 µM; in [8], 4.37 µM; in assay [9], 1.89 µM; in assay [10], 28.4 µM.

Consider `O=C(Oc1cccc(Cl)c1)c1cc2cc(CCl)ccc2oc1=O`, for which the TGI in assay [1] was more than 100 µM; in assay [2] it was 49.5 µM; in assay [3] it was 28.2 µM; in assay [4] it was 28.9 µM; in assay [5], more than 100 µM; in assay [6], more than 100 µM. In addition, the TGI in assay [7] was more than 100 µM; in [8] it was more than 100 µM; in assay [9], 82 µM; in [10] it was 33.5 µM.

As to `C[N+](C)([O-])CCCNc1ccnc2cccc([N+](=O)[O-])c12`, the TGI is more than 100 µM in [1]; 28 µM in assay [2]; more than 100 µM in [3]; 45.8 µM in assay [4]; more than 100 µM in assay [5]; more than 100 µM in assay [6]. The TGI is more than 100 µM in assay [7], more than 100 µM in [8], 54.1 µM in assay [9] and 87.6 µM in assay [10].
